In patent publication US20200148646A1, “6-S[…] 7-S[…] ANALOGS AND THE USE THEREOF” (Purdue Pharma, L.P., priority 2013, published 2020) one finds EC50 and Emax data, which are given here for 15 compounds.

One assay concerns the target μ-opioid receptor (Homo sapiens, UniProt P35372). The experiment in a line: μ-opioid receptor [35S]GTPγS functional assay, U-2 OS cells. In kind it is biochemical. Details: host or cells: U-2 OS cells. Particulars: for Emax: U2-OS cells, relative to DAMGO. On the procedure: [^35S]GTPγS functional assays were conducted using freshly thawed μ-receptor membranes prepared in-house from a cell line expressing recombinant opioid receptor in a HEK-293, CHO or U-2 OS cell background, or purchased from a commercial source (Perkin Elmer, Shelton, Conn.; or DiscovRx, Fremont, Calif.). Assay reactions were prepared by sequentially adding the following reagents to binding buffer (100 mM NaCl, 10 mM MgCl2, 20 mM HEPES, pH 7.4) on ice (final concentrations indicated): membrane protein (0.026 mg/mL), saponin ([…]), GDP ([…]) and [^35S]GTPγS (0.20 nM; Perkin Elmer, Shelton, Conn.). The prepared membrane solution (190 l/well) was transferred to 96-shallow well polypropylene plates containing 10 μl of 20× concentrated stock solutions of the agonist [D-Ala^2, N-methyl-Phe^4 Gly-ol^5]-enkephalin (DAMGO) prepared in dimethyl sulfoxide (DMSO). Plates were incubated for 30 min at about 25° C. with shaking. Reactions were terminated by rapid filtration onto 96-well Unifilter GF/B filter plates (Perkin Elmer, Shelton, Conn.) using a 96-well tissue harvester (Perkin Elmer, Shelton, Conn.) followed by three filtration washes with 200 μl of ice-cold wash buffer (10 mM NaH2PO4, 10 mM Na2HPO4, pH 7.4). Filter plates were subsequently dried at 50° C. for 2-3 hr. BetaScint scintillation cocktail (Perkin Elmer, Shelton, Conn.) was added (50 μl/well) and plates were counted using a Packard Top-Count for 1 min/well. Data were analyzed using the sigmoidal dose-response curve fitting functions in GraphPad PRISM v. 3.0, or an in-house function for non-linear, sigmoidal dose-response curve-fitting.
μ GTP EC50 is the concentration of a compound providing 50% of the maximal response for the compound at a μ-opioid receptor.
μ GTP Emax (%) is the maximal effect elicited by a compound relative to the effect elicited by DAMGO, a standard agonist. Generally, the μ GTP Emax (%) value measures the efficacy of a compound to treat or prevent pain or other Conditions.
(§1) In TABLE 2A, activity response of certain Compounds of the Invention at the μ- and κ-opioid receptors using U-2 OS cells was determined as described above for functional assays.
(GTPγS is a poorly hydrolysed GTP analogue; its binding reports G protein activation.)

Another assay has as its target human κ opioid receptor (Homo sapiens, UniProt P41145). The experiment in a line: κ-opioid receptor [35S]GTPγS functional assay, U-2 OS cells. It counts as biochemical. The arrangement: expressed in transfected cells; host or cells: U-2 OS cells (in-house membranes). The conditions noted are these: for Emax: U2-OS cells, relative to U69,593. On the procedure:
Membranes from recombinant HEK-293 cells, CHO or U-2 OS cells expressing the recombinant human K opioid receptor (K) were prepared by lysing cells in ice cold hypotonic buffer (2.5 mM MgCl2, 50 mM HEPES, pH 7.4) (10 mL/10 cm dish) followed by homogenization with a tissue grinder/Teflon pestle. Functional [^35S]GTPγS binding assays were conducted as follows. K opioid receptor membrane solution was prepared by sequentially adding final concentrations of 0.026 μg/μl κ membrane protein (in-house), 10 μg/mL saponin, 3 μM GDP and 0.20 nM [^35S]GTPγS to binding buffer (100 mM NaCl, 10 mM MgCl2, 20 mM HEPES, pH 7.4) on ice. The prepared membrane solution (190 μl/well) was transferred to 96-shallow well polypropylene plates containing 10 μl of 20× concentrated stock solutions of agonist prepared in DMSO. Plates were incubated for 30 min at a temperature of about 25° C. with shaking. Reactions were terminated by rapid filtration onto 96-well Unifilter GF/B filter plates (Perkin Elmer, Shelton, Conn.) using a 96-well tissue harvester (Packard) and followed by three filtration washes with 200 μl ice-cold binding buffer (10 mM NaH2PO4, 10 mM Na2HPO4, pH 7.4). Filter plates were subsequently dried at 50° C. for 2-3 hours. Fifty μl/well scintillation cocktail (Perkin Elmer, Shelton, Conn.) was added and plates were counted in a Packard Top-Count for 1 min/well.
κ GTP EC50 is the concentration of a compound providing 50% of the maximal response for the compound at a κ receptor.
κ GTP Emax (%) is the maximal effect elicited by a compound relative to the effect elicited by U69,593.
as §1

Each structure is given as a SMILES string.

human κ opioid receptor, sequence (P41145 whole entry): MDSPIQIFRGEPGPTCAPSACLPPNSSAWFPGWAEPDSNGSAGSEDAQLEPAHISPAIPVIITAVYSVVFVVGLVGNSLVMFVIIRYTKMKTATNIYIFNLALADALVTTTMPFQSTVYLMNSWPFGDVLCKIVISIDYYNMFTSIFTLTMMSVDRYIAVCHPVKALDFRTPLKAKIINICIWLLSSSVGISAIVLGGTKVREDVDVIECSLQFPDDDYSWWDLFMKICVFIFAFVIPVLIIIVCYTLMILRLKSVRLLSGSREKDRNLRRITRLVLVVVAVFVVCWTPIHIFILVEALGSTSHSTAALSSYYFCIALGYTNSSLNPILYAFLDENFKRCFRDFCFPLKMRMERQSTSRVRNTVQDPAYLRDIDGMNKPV
μ-opioid receptor, sequence (P35372 whole entry, species assumed): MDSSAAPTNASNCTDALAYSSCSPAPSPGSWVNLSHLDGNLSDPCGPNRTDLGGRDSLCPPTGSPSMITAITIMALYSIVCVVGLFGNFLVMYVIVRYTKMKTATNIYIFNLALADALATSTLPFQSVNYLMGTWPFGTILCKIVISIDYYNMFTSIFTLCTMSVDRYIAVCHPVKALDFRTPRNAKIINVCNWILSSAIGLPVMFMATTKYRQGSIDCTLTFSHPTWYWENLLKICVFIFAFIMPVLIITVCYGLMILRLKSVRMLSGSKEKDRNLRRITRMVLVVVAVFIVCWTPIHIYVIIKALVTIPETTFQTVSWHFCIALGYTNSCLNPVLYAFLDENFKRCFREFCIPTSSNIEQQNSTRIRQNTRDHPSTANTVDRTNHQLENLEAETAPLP

Regarding `O=C(O)CN[C@@H]1C[C@@]2(O)[C@H]3Cc4ccc(O)cc4[C@@]2(CCN3CC2CC2)C[C@@H]1O` [Compound 40, ((4bR,6S,7R,8aS,9R)-11-(cyclopropylmethyl)-3,6,8a-trihydroxy-6,7,8,8a,9,10-hexahydro-5H-9,4b-(epiminoethano)phenanthren-7-yl)glycine], the EC50 on μ-opioid receptor is greater than 20 µM; on human κ opioid receptor, 0.00724 ± 0.00065 µM. In addition, the Emax at μ-opioid receptor turned out to be 2%; on human κ opioid receptor it was 43 ± 3.06%.

On μ-opioid receptor, `COc1ccc2c(c1)[C@@]13CC[C@H](NCC(C)C)C[C@@]1(O)[C@@H](C2)N(CC1CC1)CC3` [Compound 41, (4bS,7S,8aS,9R)-11-(cyclopropylmethyl)-7-(isobutylamino)-3-methoxy-5,6,7,8,9,10-hexahydro-8aH-9,4b-(epiminoethano)phenanthren-8a-ol] yielded an EC50 of 0.674 ± 0.0638 µM and an Emax of 74.7 ± 4.67%. Also, on human κ opioid receptor, the EC50 came to 0.0416 ± 0.00225 µM and the Emax came to 102 ± 2.19%.

For the compound `CC(=O)N[C@H]1CC[C@]23CCN(CC4CC4)[C@H](Cc4ccc(O)cc42)[C@]3(O)C1` [Compound 47, N-((4bS,7S,8aS,9R)-11-(cyclopropylmethyl)-3,8a-dihydroxy-6,7,8,8a,9,10-hexahydro-5H-9,4b-(epiminoethano)phenanthren-7-yl)acetamide], the values for the EC50 at μ-opioid receptor and on human κ opioid receptor were 0.00061 ± 0.00017 µM and 0.00014 ± 2.7e-05 µM, respectively. In addition, the Emax on μ-opioid receptor turned out to be 44 ± 1.73%; on human κ opioid receptor it was 105 ± 1.76%.

With `COc1ccc2c(c1)[C@]13CCN(CC4CC4)[C@H](C2)[C@]1(O)C[C@H](NC(=O)C(C)C)C(O)C3` (stereo partly drawn) [Compound 49, N-((4bR,7S,8aS,9R)-11-(cyclopropylmethyl)-6,8a-dihydroxy-3-methoxy-6,7,8,8a,9,10-hexahydro-5H-9,4b-(epiminoethano)phenanthren-7-yl)isobutyramide], at μ-opioid receptor, a half-maximal response (EC50) required 8.46 µM and the Emax was found to be 27 ± 1.53%. Also, at human κ opioid receptor, it took 7.94 µM to reach a half-maximal effect (EC50) and the Emax was 90.3 ± 1.67%.

On μ-opioid receptor, `COc1ccc2c(c1)[C@]13CCN(CC4CC4)[C@H](C2)[C@]1(O)C[C@H](OCC(C)C)[C@H](O)C3` [Compound 51, (4bR,6R,7S,8aS,9R)-11-(cyclopropylmethyl)-7-isobutoxy-3-methoxy-5,6,7,8,9,10-hexahydro-8aH-9,4b-(epiminoethano)phenanthrene-6,8a-diol] yielded an EC50 greater than 20 µM and an Emax of 7%. Also, at human κ opioid receptor, the midpoint of the response, the EC50, lay at 14.5 ± 1.68 µM and the maximal response (Emax) was found to be 86.7 ± 3.18%.

For the compound `COc1ccc2c(c1)[C@@]13CC[C@@H](O)C[C@@]1(O)[C@@H](C2)N(CC1CC1)CC3` [Compound 52, (4bS,7R,8aS,9R)-11-(cyclopropylmethyl)-3-methoxy-5,6,7,8,9,10-hexahydro-8aH-9,4b-(epiminoethano)phenanthrene-7,8a-diol], the figures for the EC50 at μ-opioid receptor and at human κ opioid receptor were 1.26 µM and 1.57 ± 0.0974 µM, respectively. The results for the maximum response (Emax) on μ-opioid receptor and on human κ opioid receptor were 23.2 ± 4.07% and 91.3 ± 0.67%, respectively.

At μ-opioid receptor, `CCC(C)C[C@H]1C[C@@]2(O)[C@H]3Cc4ccc(O)cc4[C@@]2(CCN3CC2CC2)C[C@H]1O` (stereo partly drawn) [Compound 53, (4bR,6R,7S,8aS,9R)-11-(cyclopropylmethyl)-7-(2-methylbutyl)-5,6,7,8,9,10-hexahydro-8aH-9,4b-(epiminoethano)phenanthrene-3,6,8a-triol] displayed an EC50 greater than 20 µM and an Emax of 3%. On human κ opioid receptor, this compound returned an EC50 of 0.0738 ± 0.0118 µM and an Emax of 62 ± 1.53%.

As to `Oc1ccc2c(c1)[C@]13CCN(CC4CC4)[C@H](C2)[C@]1(O)C[C@H](CC1CCCC1)[C@H](O)C3` [Compound 54, (4bR,6R,7S,8aS,9R)-7-(cyclopentylmethyl)-11-(cyclopropylmethyl)-5,6,7,8,9,10-hexahydro-8aH-9,4b-(epiminoethano)phenanthrene-3,6,8a-triol], on μ-opioid receptor, the EC50 is greater than 20 µM and the Emax is 3%. In addition, on human κ opioid receptor, the EC50 came to 0.0321 ± 0.00276 µM and the Emax came to 97.7 ± 3.93%.

`CC(C)C(=O)N[C@H]1C[C@@]2(O)[C@H]3Cc4ccc(O)cc4[C@@]2(CCN3CC2CC2)C[C@H]1O` [Compound 58, N-((4bR,6R,7S,8aS,9R)-11-(cyclopropylmethyl)-3,6,8a-trihydroxy-6,7,8,8a,9,10-hexahydro-5H-9,4b-(epiminoethano)phenanthren-7-yl)isobutyramide]: on μ-opioid receptor, it took 0.0809 ± 0.0151 µM to reach a half-maximal effect (EC50) and the Emax came to 19.3 ± 1.45%. Also, on human κ opioid receptor, the response was half-maximal at 0.0381 ± 0.0022 µM (EC50) and the Emax worked out at 101 ± 1.2%.

Turning to `CC[C@H](C)C(=O)N[C@H]1C[C@@]2(O)[C@H]3Cc4ccc(O)cc4[C@@]2(CCN3CC2CC2)C[C@H]1O` [Compound 59, (S)—N-((4bR,6R,7S,8aS,9R)-11-(cyclopropylmethyl)-3,6,8a-trihydroxy-6,7,8,8a,9,10-hexahydro-5H-9,4b-(epiminoethano)phenanthren-7-yl)-2-methylbutanamide], at μ-opioid receptor, the EC50 was 0.045 ± 0.00896 µM and the Emax came to 22.3 ± 1.45%. Moreover, on human κ opioid receptor, the response was half-maximal at 0.0356 ± 0.00427 µM (EC50) and the Emax was 98.3 ± 3.18%.

For `CC(C)CC(=O)N[C@H]1C[C@@]2(O)[C@H]3Cc4ccc(O)cc4[C@@]2(CCN3CC2CC2)C[C@H]1O` [Compound 60, N-((4bR,6R,7S,8aS,9R)-11-(cyclopropylmethyl)-3,6,8a-trihydroxy-6,7,8,8a,9,10-hexahydro-5H-9,4b-(epiminoethano)phenanthren-7-yl)-3-methylbutanamide], the results for the EC50 on μ-opioid receptor and on human κ opioid receptor were 0.0547 ± 0.0081 µM and 0.0314 ± 0.0037 µM, respectively. Also, the Emax on μ-opioid receptor amounted to 25.3 ± 0.33%; at human κ opioid receptor, 106 ± 6.06%.

On μ-opioid receptor, `CC(C)CCC(=O)N[C@H]1C[C@@]2(O)[C@H]3Cc4ccc(O)cc4[C@@]2(CCN3CC2CC2)C[C@H]1O` [Compound 61, N-((4bR,6R,7S,8aS,9R)-11-(cyclopropylmethyl)-3,6,8a-trihydroxy-6,7,8,8a,9,10-hexahydro-5H-9,4b-(epiminoethano)phenanthren-7-yl)-4-methylpentanamide] had an EC50 of 0.0616 ± 0.00541 µM and an Emax of 26.7 ± 0.88%. Besides, on human κ opioid receptor, the 50% effective concentration (EC50) came out at 0.0154 ± 0.00243 µM and the Emax was 97.7 ± 2.19%.

As for `O=C(N[C@H]1C[C@@]2(O)[C@H]3Cc4ccc(O)cc4[C@@]2(CCN3CC2CC2)C[C@H]1O)C1CC1` [Compound 64, N-((4bR,6R,7S,8aS,9R)-11-(cyclopropylmethyl)-3,6,8a-trihydroxy-6,7,8,8a,9,10-hexahydro-5H-9,4b-(epiminoethano)phenanthren-7-yl)cyclopropanecarboxamide], the EC50 was found to be 0.112 ± 0.0193 µM at μ-opioid receptor and 0.0483 ± 0.0031 µM at human κ opioid receptor. Moreover, the Emax on μ-opioid receptor worked out at 7.33 ± 0.33%; at human κ opioid receptor, 93.7 ± 2.33%.

Turning to `O=C(N[C@H]1C[C@@]2(O)[C@H]3Cc4ccc(O)cc4[C@@]2(CCN3CC2CC2)CC1O)C1CCCCC1` (stereo partly drawn) [Compound 65, N-((4bR,7S,8aS,9R)-11-(cyclopropylmethyl)-3,6,8a-trihydroxy-6,7,8,8a,9,10-hexahydro-5H-9,4b-(epiminoethano)phenanthren-7-yl)cyclohexanecarboxamide], on μ-opioid receptor, the response was half-maximal at 0.0684 ± 0.013 µM (EC50) and the Emax came out at 26.7 ± 0.67%. At human κ opioid receptor, this compound showed a concentration for a half-maximal effect (EC50) of 0.0159 ± 0.00209 µM and an Emax of 106 ± 1.89%.

On to `O=C(N[C@H]1C[C@@]2(O)[C@H]3Cc4ccc(O)cc4[C@@]2(CCN3CC2CC2)C[C@H]1O)c1ccccc1` [Compound 66, N-((4bR,6R,7S,8aS,9R)-11-(cyclopropylmethyl)-3,6,8a-trihydroxy-6,7,8,8a,9,10-hexahydro-5H-9,4b-(epiminoethano)phenanthren-7-yl)benzamide], for which, at μ-opioid receptor, the EC50 was found to be 0.114 ± 0.0145 µM and the maximum response (Emax) was 15 ± 0.58%. On human κ opioid receptor, this compound returned an EC50 of 0.0392 ± 0.00427 µM and an Emax of 71.7 ± 1.2%.

Broadly, the EC50 is the concentration needed to bring the measured effect to its halfway point. Low values mean a more potent agent, high ones a less potent agent. What is called Emax is the size of the effect at its maximum, as opposed to the concentration needed.
